According to patent US20210381051A1, “DNA METHYLATION BIOMARKER OF AGING FOR HUMAN EX VIVO AND IN VIVO STUDIES” (The Regents of the University of California, priority 2018, published 2021):

What was measured:
[1] = test system: neonatal dermal fibroblasts; assay: Ex vivo epigenetic aging of fibroblasts by the skin & blood clock; assay type: cell-based, human; conditions: suggestive evidence
Text: (§1) FIG. 6. Ex vivo study of compounds that may accelerate or decelerate epigenetic aging. A) Effect of Y-27632 and rapamycin treatment on neonatal keratinocytes measured by the skin & blood clock. B) Effect of oestrogen on neonatal dermal fibroblasts.
(§2) By its ability to quantitatively track aging of human cells ex vivo, the skin & blood clock lends itself to be used in the development of an ex vivo human cell aging assay that can be used for testing and screening compounds with anti-aging or pro-aging effects.

[2] = test system: progerin accumulation in HGPS cells; conditions: in vitro studies [41, 42]; cited from earlier work
[3] = test system: primary human keratinocytes from neonatal foreskins; assay: Ex vivo human cell aging assay: DNAm age of cultured keratinocytes by the skin & blood clock; assay type: cell-based
Text: as §1, §2
Primary keratinocytes were isolated from human neonatal foreskins from three donors (Donor A, B and C) and were put in culture with standard media or media supplemented with rapamycin, Y-27632 or a cocktail of both of these compounds (methods). The cells were passaged continually and population doublings at each passage recorded. In time all cells, regardless of donor or treatment underwent replicative senescence, where they ceased to increase their numbers after at least 2 weeks in culture with regular replenishment of media. […] DNA methylation profiles from a selection of passages of these cells were obtained and analysed with the skin & blood clock. […]
(§3) Primary human neonatal fibroblasts were isolated from circumcised foreskins. […] Upon confluence, cells were trypsinised, counted and 100,000 were seeded into fresh fibronectin/collagen-coated plates. […]

[4] = test system: primary human keratinocytes; assay: Keratinocyte proliferation rate and proliferative capacity (population doublings); assay type: cell-based; conditions: rapamycin 25 nM, Y-27632 1 μM
Text: The availability of an epigenetic clock, such as the skin & blood clock, which is applicable to cultured cells, allows epigenetic ageing to be studied beyond the purely descriptive nature afforded by epidemiological analyses alone. Towards this end, we have established in vitro epigenetic ageing systems using primary human cells. One of this is based on primary keratinocytes that are derived from healthy human skins. […] The opposing effects of these compounds on keratinocyte proliferation present us with the opportunity to test whether cellular proliferation rate impacts epigenetic ageing while carrying out our primary aim of interrogating the effects of rapamycin on epigenetic ageing.
Primary keratinocytes were isolated from human neonatal foreskins from three donors (Donor A, B and C) and were put in culture with standard media or media supplemented with rapamycin, Y-27632 or a cocktail of both of these compounds (methods). The cells were passaged continually and population doublings at each passage recorded. […] DNA methylation profiles from a selection of passages of these cells were obtained and analysed with the skin & blood clock. […]
as §3

HGPS patients = conditions: after 2.2 years of follow-up, 27% death in the matched untreated group; cited from earlier work

**Q.** For estrogen, which “epigenetic aging (skin & blood clock), FIG. 6B” value [1] is on record?
**A.** Its value is “associated with slower epigenetic aging”.

**Q.** Which “progerin accumulation and cellular HGPS phenotypes” value [2] does the source give for `CN(C)C(=N)N=C(N)N` [metformin] here?
**A.** The value was “reduction of progerin accumulation”.

**Q.** For `C[C@@H](N)[C@H]1CC[C@H](C(=O)Nc2ccncc2)CC1` [Y-27632], which “epigenetic aging (skin & blood clock), FIG. 6A” value ([3]; Example 1, dividing / neonatal keratinocytes, suggestive evidence) is on record?
**A.** Its value is “appears to increase epigenetic aging”.

**Q.** What about the “epigenetic ageing (skin & blood clock)” value ([3]; Example 2, neonatal foreskin keratinocytes of three donors, CnT-07 medium, rapamycin 25 nM, Y-27632 1 μM, present for the entire duration) of the same compound?
**A.** Its value is “did not impose any appreciable effect”.

**Q.** What about the “cellular proliferation rate (population doublings per unit of time)” value [4] of the same compound?
**A.** The value was “increases it”.

**Q.** Which “death in the treated group” value (HGPS patients) does the source give for `NC(=O)N1CCC(CC(=O)N2CCC([C@H]3c4ncc(Br)cc4CCc4cc(Cl)cc(Br)c43)CC2)CC1` [lonafarnib] here?
**A.** The value was 6.3%.
